Results: patent publication US8513243B2, “ABT-263 crystalline forms” (AbbVie Inc., priority 2009, dated 2013)

How the values were obtained:
[1] = sulfoxide formation in lipid solution; type: physicochemical; settings: formulated in lipid solution, in the absence of antioxidant; compared with salt form, e.g. ABT-263 bis-HCl
[2] = dissolution in a lipid carrier when preparing a liquid formulation; type: physicochemical; settings: solution in a lipid carrier; compared with amorphous form
[3] = tested on: small-cell lung cancer (SCLC) and lymphoid malignancies; settings: against SCLC and lymphoid malignancies; cited from earlier work

Structure (SMILES): CC1(C)CCC(c2ccc(Cl)cc2)=C(CN2CCN(c3ccc(C(=O)NS(=O)(=O)c4ccc(N[C@H](CCN5CCOCC5)CSc5ccccc5)c(S(=O)(=O)C(F)(F)F)c4)cc3)CC2)C1 [ABT-263 free base, N-(4-(4-((2-(4-chlorophenyl)-5,5-dimethyl-1-cyclohex-1-en-1-yl)methyl)piperazin-1-yl)benzoyl)-4-(((1R)-3-(morpholin-4-yl)-1-((phenylsulfanyl)methyl)propyl)amino)-3-((trifluoromethyl)sulfonyl)benzenesulfonamide]
- susceptibility to sulfoxide formation [1]: less susceptible to sulfoxide formation than ABT-263 in salt form

Structure (SMILES): CC1(C)CCC(c2ccc(Cl)cc2)=C(CN2CCN(c3ccc(C(=O)NS(=O)(=O)c4ccc(N[C@H](CCN5CCOCC5)CSc5ccccc5)c(S(=O)(=O)C(F)(F)F)c4)cc3)CC2)C1 [crystalline ABT-263, N-(4-(4-((2-(4-chlorophenyl)-5,5-dimethyl-1-cyclohex-1-en-1-yl)methyl)piperazin-1-yl)benzoyl)-4-(((1R)-3-(morpholin-4-yl)-1-((phenylsulfanyl)methyl)propyl)amino)-3-((trifluoromethyl)sulfonyl)benzenesulfonamide]
- dissolution behaviour [2]: dissolves faster and has less tendency to form a gel during dissolution

Structure (SMILES): CN(C)CC[C@H](CSc1ccccc1)Nc1ccc(S(=O)(=O)NC(=O)c2ccc(N3CCN(Cc4ccccc4-c4ccc(Cl)cc4)CC3)cc2)cc1[N+](=O)[O-] [ABT-737, N-(4-(4-((4′-chloro-(1,1′-biphenyl)-2-yl)methyl)piperazin-1-yl)benzoyl)-4-(((1R)-3-(dimethylamino)-1-((phenylsulfanyl)methyl)propyl)amino)-3-nitrobenzene-sulfonamide]
- single-agent activity [3]: single-agent activity
